Data: patent US8772323B2, “Benzoxazole- and tetrahydrobenzoxazole-substituted pyridazinones as GPR119 agonists” (Boehringer Ingelheim International GmbH, priority 2010, dated 2014)
Counter-ions that a name gives are not always drawn.

What follows are compounds tested against human GPR119 (Homo sapiens (Human), UniProt Q8TDV5) (assay: AlphaScreen cAMP assay in Min-6/hGPR119 cells (GPR119 activation, intracellular cAMP)). Conditions: MIN6 cells stably transfected with human GPR119; 45 minutes' incubation at RT; AlphaScreen cAMP Assay Kit.
human GPR119, sequence (Q8TDV5 whole entry): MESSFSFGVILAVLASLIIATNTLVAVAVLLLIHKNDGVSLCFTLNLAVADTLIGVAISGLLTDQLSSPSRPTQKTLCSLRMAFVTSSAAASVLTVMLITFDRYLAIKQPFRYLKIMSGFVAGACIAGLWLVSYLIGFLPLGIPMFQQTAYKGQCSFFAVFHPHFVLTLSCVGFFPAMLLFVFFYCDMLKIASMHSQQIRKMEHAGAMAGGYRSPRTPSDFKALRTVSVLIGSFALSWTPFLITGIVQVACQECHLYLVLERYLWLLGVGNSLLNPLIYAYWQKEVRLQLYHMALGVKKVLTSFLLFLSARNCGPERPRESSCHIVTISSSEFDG
Type: cell-based
How it was run: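 cAMP quantified by AlphaScreen after 45 min room-temperature compound exposure in HEPES/bicarbonate buffer, pH 7.4, containing 0.5 mM IBMX, 0.1% BSA and 1% DMSO final. Cells were Min-6 stably transfected with human GPR119, seeded 24 h beforehand.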

| EC50 | SMILES |
| --- | --- |
| 3.46 µM | O=C1CCC(c2ccc3nc(N4CCSCC4)oc3c2)=NN1 [Example 119, 6-(2-thiomorpholin-1-yl-benzoxazol-6-yl)-4,5-dihydro-2H-pyridazin-3-one] |
| 3.91 µM | CCC1CC(=O)NN=C1c1ccc2nc(-c3ccc(OCC(=O)O)cc3)oc2c1 (stereo not shown) [Example 70, 4-[6-(4-ethyl-6-oxo-1,4,5,6-tetrahydro-pyridazin-3-yl)-benzoxazol-2-yl]-phenoxy-acetic acid] |
| 0.46 µM | CCC1CC(=O)NN=C1c1ccc2nc(-c3ccc(OC)c(OC)c3)oc2c1 (stereo not shown) [Example 92, 6-[2-(3,4-dimethoxy-phenyl)-benzoxazol-6-yl]-5-ethyl-4,5-dihydro-2H-pyridazin-3-one] |
| 0.605 µM | CC[C@H]1CC(=O)NN=C1c1ccc2nc(-c3ccc(OCCN(C(C)C)C(C)C)cc3)oc2c1 [Example 258, (S)-6-{2-[4-(2-diisopropylamino-ethoxy)-phenyl]-benzoxazol-6-yl}-5-ethyl-4,5-dihydro-2H-pyridazin-3-one] |
| 0.12 µM | CCC1CC(=O)NN=C1c1ccc2nc(-c3ccc(OC)cc3)oc2c1 (stereo not shown) [Example 104, 5-ethyl-6-[2-(4-methoxy-phenyl)-benzoxazol-6-yl]-4,5-dihydro-2H-pyridazin-3-one] |
| 0.596 µM | C[C@@H]1CC(c2ccc3nc(-c4ccccc4)oc3c2)=NNC1=O [Example 4, (R)-4-methyl-6-(2-phenyl-benzoxazol-6-yl)-4,5-dihydro-2H-pyridazin-3-one] |
| 0.094 µM | COc1ccc(-c2nc3ccc(C4=NNC(=O)CC4C)cc3o2)cc1 (stereo not shown) [Example 83, 6-[2-(4-methoxy-phenyl)-benzoxazol-6-yl]-5-methyl-4,5-dihydro-2H-pyridazin-3-one] |
| 0.145 µM | CCC1CC(=O)NN=C1c1ccc2nc(-c3ccc(OCC4CCCCC4)cc3)oc2c1 (stereo not shown) [Example 54, 6-[2-(4-cyclohexylmethoxy-phenyl)-benzoxazol-6-yl]-5-ethyl-4,5-dihydro-2H-pyridazin-3-one] |
| 0.334 µM | COc1cccc(-c2nc3ccc(C4=NNC(=O)CC4C)cc3o2)c1 (stereo not shown) [Example 85, 6-[2-(3-methoxy-phenyl)-benzoxazol-6-yl]-5-methyl-4,5-dihydro-2H-pyridazin-3-one] |
| 0.397 µM | O=C1NCC(c2ccc3nc(-c4ccccc4)oc3c2)=NN1 [Example 143, 6-(2-phenyl-benzoxazol-6-yl)-4,5-dihydro-2H-[1,2,4]triazin-3-one] |
| 0.316 µM | CCC1CC(=O)NN=C1c1ccc2nc(-c3cccc(OC)c3)oc2c1 (stereo not shown) [Example 102, 5-ethyl-6-[2-(3-methoxy-phenyl)-benzoxazol-6-yl]-4,5-dihydro-2H-pyridazin-3-one] |
| 0.444 µM | CO[C@@H]1CC(=O)NN=C1c1ccc2nc(-c3ccccc3)oc2c1 [Example 27, (R)-5-methoxy-6-(2-phenyl-benzoxazol-6-yl)-4,5-dihydro-2H-pyridazin-3-one] |
| 0.245 µM | CCC1CC(=O)NN=C1c1ccc2nc(-c3ccc(CCc4ccccc4)cc3)oc2c1 (stereo not shown) [Example 76, 5-ethyl-6-[2-(4-phenethyl-phenyl)-benzoxazol-6-yl]-4,5-dihydro-2H-pyridazin-3-one] |
| 0.047 µM | CCC1CC(=O)NN=C1c1ccc2nc(-c3ccc(OC[C@@H]4CCCN4C(=O)OC(C)(C)C)cc3)oc2c1 (stereo partly shown) [Example 226] |
| 0.832 µM | CCC[C@H]1C(=O)NN=C(c2ccc3nc(-c4ccc(OCc5ccccc5)cc4)oc3c2)[C@H]1C (relative stereo) [Example 199, cis-6-[2-(4-benzoxy-phenyl)-benzoxazol-6-yl]-5-methyl-4-propyl-4,5-dihydro-2H-pyridazin-3-one] |
| 0.874 µM | CCCC1CC(=O)NN=C1c1ccc2nc(-c3ccccc3)oc2c1 (stereo not shown) [Example 8, 6-(2-phenyl-benzoxazol-6-yl)-5-propyl-4,5-dihydro-2H-pyridazin-3-one] |
| 1.11 µM | CCCC[C@@H]1C(=O)NN=C(c2ccc3nc(-c4ccccc4)oc3c2)[C@H]1C (relative stereo) [Example 197, trans-4-butyl-5-methyl-6-(2-phenyl-benzoxazol-6-yl)-4,5-dihydro-2H-pyridazin-3-one] |
| 6.72 µM | CCC[C@H]1C(=O)NN=C(c2ccc3nc(-c4ccccc4)oc3c2)[C@H]1C (relative stereo) [Example 129, cis-5-methyl-6-(2-phenyl-benzoxazol-6-yl)-4-propyl-4,5-dihydro-2H-pyridazin-3-one] |
| 0.486 µM | CCC1CC(=O)NN=C1c1ccc2nc(-c3ccc(OCCN(C)C)cc3)oc2c1 (stereo not shown) [Example 55, 6-{2-[4-(2-dimethylamino-ethoxy)-phenyl]-benzoxazol-6-yl}-5-ethyl-4,5-dihydro-2H-pyridazin-3-one] |
| 0.092 µM | CCC[C@@H]1C(=O)NN=C(c2ccc3nc(-c4ccc(OC)cc4)oc3c2)[C@H]1C (relative stereo) [Example 174, trans-6-[2-(4-methoxy-phenyl)-benzoxazol-6-yl]-5-methyl-4-propyl-4,5-dihydro-2H-pyridazin-3-one] |

| EC50 | SMILES |
| --- | --- |
| 0.156 µM | CCC1CC(=O)NN=C1c1ccc2nc(-c3ccc(OC4CCOC4)cc3)oc2c1 (stereo not shown) [Example 181, 5-ethyl-6-{2-[4-(tetrahydro-furan-3-yloxy)-phenyl]-benzoxazol-6-yl}-4,5-dihydro-2H-pyridazin-3-one] |
| 0.031 µM | CC1OC(=O)NN=C1c1ccc2nc(-c3ccccc3)oc2c1 (stereo not shown) [Example 81, 6-methyl-5-(2-phenyl-1,3-benzoxazol-6-yl)-3,6-dihydro-2H-1,3,4-oxadiazin-2-one] |
| 0.062 µM | CCC1CC(=O)NN=C1c1ccc2nc(-c3ccc(OCCN4CCSCC4)cc3)oc2c1 (stereo not shown) [Example 247, 5-ethyl-6-{2-[4-(2-thiomorpholin-4-yl-ethoxy)-phenyl]-benzoxazol-6-yl}-4,5-dihydro-2H-pyridazin-3-one] |
| 0.348 µM | CCC1CC(=O)NN=C1c1ccc2nc(-c3ccc(OCc4ccsc4)cc3)oc2c1 (stereo not shown) [Example 48, 5-ethyl-6-{2-[4-(thiophen-3-ylmethoxy)-phenyl]-benzoxazol-6-yl}-4,5-dihydro-2H-pyridazin-3-one] |
| 0.59 µM | CCC1CC(=O)NN=C1c1ccc2nc(-c3ccc(OC(C)CN4CCCC4)cc3)oc2c1 (stereo not shown) [Example 210, 5-ethyl-6-[2-(4-{[1-(pyrrolidin-1-yl)propan-2-yl]oxy}phenyl)-1,3-benzoxazol-6-yl]-2,3,4,5-tetrahydropyridazin-3-one] |
| 0.834 µM | CCCC1CC(c2ccc3nc(-c4ccccc4)oc3c2)=NNC1=O (stereo not shown) [Example 9, 6-(2-phenyl-benzoxazol-6-yl)-4-propyl-4,5-dihydro-2H-pyridazin-3-one] |
| 0.66 µM | C[C@H]1CC(=O)NN=C1c1ccc2nc(-c3ccccc3)oc2c1 [Example 1, (S)-5-methyl-6-(2-phenyl-benzoxazol-6-yl)-4,5-dihydro-2H-pyridazin-3-one] |
| 2.95 µM | CCC1CC(=O)NN=C1c1ccc2nc(-c3ccc(OC[C@@H]4CCCN4)cc3)oc2c1 (stereo partly shown) [Example 238, 5-ethyl-6-{2-[4-(S-pyrrolidin-2-yl-methoxy)-phenyl]-benzoxazol-6-yl}-4,5-dihydro-2H-pyridazin-3-one×HCl] |
| 0.088 µM | CCC[C@H]1C(=O)NN=C(c2ccc3nc(-c4cc(C)cs4)oc3c2)[C@@H]1C (relative stereo) [Example 186, trans-5-methyl-6-[2-(4-methyl-thiophen-2-yl)-benzoxazol-6-yl]-4-propyl-4,5-dihydro-2H-pyridazin-3-one] |
| 2.59 µM | CC[C@H]1C(=O)NN=C(c2ccc3nc(-c4ccccc4)oc3c2)[C@H]1C [Example 127, (4R,5S)-4-ethyl-5-methyl-6-(2-phenyl-1,3-benzoxazol-6-yl)-2,3,4,5-tetrahydropyridazin-3-one] |
| 2.02 µM | O=C1NN=C(c2ccc3nc(Cc4ccccc4)oc3c2)C2CC12 (stereo not shown) [Example 136, 5-(2-benzyl-benzoxazol-6-yl)-3,4-diaza-bicyclo[4.1.0]hept-4-en-2-one] |
| 0.243 µM | O=C1NN=C(c2ccc3nc(-c4ccccc4)oc3c2)C2CC12 (stereo not shown) [Example 5, 5-(2-phenyl-benzoxazol-6-yl)-3,4-diaza-bicyclo[4.1.0]hept-4-en-2-one] |
| 0.083 µM | CCC[C@H]1C(=O)NN=C(c2ccc3nc(-c4ccco4)oc3c2)[C@@H]1C [Example 188, trans-6-(2-uran-2-yl-benzoxazol-6-yl)-5-methyl-4-propyl-4,5-dihydro-2H-pyridazin-3-one] |
| 0.041 µM | CCC1OC(=O)NN=C1c1ccc2nc(-c3ccccc3)oc2c1 (stereo in doubt) [Example 79, (S)-6-ethyl-5-(2-phenyl-benzoxazol-6-yl)-3,6-dihydro-[1,3,4]oxadiazin-2-one] |
| 0.181 µM | CCC1CC(=O)NN=C1c1ccc2nc(-c3ccccc3)oc2c1 (stereo not shown) [Example 29, 5-ethyl-6-(2-phenyl-benzoxazol-6-yl)-4,5-dihydro-2H-pyridazin-3-one] |
| 0.456 µM | O=c1ccc(-c2ccc3nc(-c4cccs4)oc3c2)n[nH]1 [Example 257, 6-(2-thiophen-2-yl-benzoxazol-6-yl)-2H-pyridazin-3-one] |
| 0.124 µM | CCC1CC(=O)NN=C1c1ccc2nc(-c3ccc(OCCN(CC(C)C)CC(C)C)cc3)oc2c1 (stereo not shown) [Example 160, 6-{2-[4-(2-diisobulylamino-ethoxy)-phenyl]-benzoxazol-6-yl}-5-ethyl-4,5-dihydro-2H-pyridazin-3-one] |
| 0.108 µM | CCC1CC(=O)NN=C1c1ccc2nc(-c3ccc(OC4CCCCC4O)cc3)oc2c1 (stereo not shown) [Example 212, 5-ethyl-6-(2-{4-[(2-hydroxycyclohexyl)oxy]phenyl}-1,3-benzoxazol-6-yl)-2,3,4,5-tetrahydropyridazin-3-one] |
| 0.639 µM | CCC1CC(=O)NN=C1c1ccc2nc(-c3ccc(OCc4cccnc4)cc3)oc2c1 (stereo not shown) [Example 60, 5-ethyl-6-{2-[4-(pyridin-3-ylmethoxy)-phenyl]-benzoxazol-6-yl}-4,5-dihydro-2H-pyridazin-3-one] |
| 0.892 µM | C=CCC1CC(c2ccc3nc(-c4ccccc4)oc3c2)=NNC1=O (stereo not shown) [Example 7, 4-allyl-6-(2-phenyl-benzoxazol-6-yl)-4,5-dihydro-2H-pyridazin-3-one] |
